System: mild to moderate AD patients
Test: Phase 3 trial in mild to moderate AD: ADAS-cog change from baseline
Type: in vivo, human
From the text: The co-primary efficacy outcomes were change from baseline in 11-item Alzheimer's Disease Assessment Scale—cognitive subscale (ADAS-cog) and the 23-item Alzheimer's Disease Cooperative Study Activities of Daily Living (ADCS-ADL). Magnetic resonance imaging (MRI) volumetry was chosen as the principal secondary outcome to support a potential effect on the rate of brain atrophy (Fox et al., 1997; Ridha et al., 2008). Change in Lateral Ventricular Volume (LVV), as measured by the Ventricular Boundary Shift Integral (VBSI), (Salloway et al., 2014) was chosen as the principal measure as it provides high-contrast boundaries for measurement and is less affected by motion artefacts than whole brain or smaller structures. Key supportive topographical measures (temporo-parietal (TPV) and hippocampal volume (HV)) are also reported.
Patients were recruited at 115 sites across 16 countries between January 2013 and August 2014. Enrolment of approximately 833 patients was targeted, with 891 patients actually recruited, in order to obtain data on approximately 500 patients completing the study, assuming a 30-40% drop-out rate. […] Adult caregiver(s) were required to participate. Concomitant use of AChEIs and/or memantine was permitted, provided the patient had been taking the medication(s) for […], with no changes to the dosage for 26 weeks prior to screening. Concomitant use of serotonergic antidepressant medication was permitted, but patients were monitored closely using a targeted rating scale derived from 4 published diagnostic criteria (Alusik et al., 2014) due to a theoretical potential for serotonin syndrome (Ramsay et al., 2007). […] Because MT^+ in high doses can induce methaemoglobinaemia, subjects with glucose-6-phosphate dehydrogenase deficiency or who were otherwise at haematological risk were excluded. Other inclusion/exclusion criteria are provided in the Supplementary Materials.
Patients were randomised at baseline to LMTM 75 mg b.i.d. or 125 mg b.i.d. (expressed as MT base equivalent) or control in a 3:3:4 ratio. The randomisation was stratified according to geographical region (3 levels: North America, Europe, rest of world), use of AD-labelled co-medications (2 levels, using or not using) and severity (2 levels, moderate MMSE 14-19 inclusive, mild MMSE 20-26 inclusive). Patients in the control arm received a dose of 4 mg b.i.d. to maintain blinding.
ADAS-cog and ADCS-ADL assessments were performed at baseline and every 13 weeks thereafter, with change at 65 weeks (the final on-treatment visit) the primary efficacy measures. These were repeated at the final off-treatment follow-up visit at Week 69. Secondary efficacy measures included Clinical Global Impression of Change (ADCS-CGIC, administered by an independent rater); MMSE, administered on screening and at Weeks 26, 52, 65 and 69. Brain MRI scans were performed at baseline/screening and every 13 weeks using a standardized protocol including volumetric 3D T1-weighted data consistent with ADNI recommendations, FLAIR, T2* Gradient Echo and T2-weighted sequences. Diffusion-Weighted Imaging was also available at screening in order to exclude patients with co-existing pathology that would lead to a diagnosis other than probable AD. Each site was first qualified ensuring standardised acquisition protocol, patient handling and data management. MRI data were centrally collected by Imaging Corelab (Bioclinica). Data were centrally reviewed by RadMD for eligibility and safety (Amyloid Related Imaging Abnormalities, or ARIA monitoring) on an on-going basis. Volumetric 3DT1 data were also reviewed centrally in order to measure (using a boundary shift integral (BSI) technique; Salloway et al., 2014) change in LVV as principal secondary outcome measure, and as exploratory endpoints temporo-parietal volume (TPV), whole brain volume (WBV) and hippocampal volume (HV, estimated as the mean of left and right) (Wischik et al., 2016). […]

CN(C)c1ccc2c(c1)Sc1cc(N(C)C)ccc1N2 [LMTM, leuco-methythioninium bis(hydromethanesulfonate)]
ADAS-cog treatment effect as % of the decline over 65 weeks seen in the control arm (mean±SE) (75 mg b.i.d. monotherapy, 65 weeks): 103%±23%
ADAS-cog treatment effect as % of the decline over 65 weeks seen in the control arm (mean±SE) (125 mg b.i.d. monotherapy, 65 weeks): 83%±23%
ADAS-cog, Estimate (change from baseline) (Table 2 primary analysis, 65 weeks, covariates additive, control arm (LMTM 4 mg b.i.d.)): 6.32 ADAS-cog units
ADAS-cog, Estimate (difference with respect to control) (Table 2 primary analysis, 65 weeks, 75 mg b.i.d.): −0.02 ADAS-cog units
ADAS-cog, Estimate (difference with respect to control) (Table 2 primary analysis, 65 weeks, 125 mg b.i.d.): −0.43 ADAS-cog units
ADAS-cog, Estimate (mean additive treatment benefit) (Table 2 primary analysis, 65 weeks, patients not using AChEI/Mem (additive covariate)): −2.30 ADAS-cog units
ADAS-cog, Estimate (difference vs control) (Table 3, AChEI/Mem as interaction term, 65 weeks, 75 mg b.i.d. + AChEI/Mem): 1.02 ADAS-cog units
ADAS-cog, Estimate (difference vs control) (Table 3, AChEI/Mem as interaction term, 65 weeks, 75 mg b.i.d. monotherapy): −6.25 ADAS-cog units
ADAS-cog, Estimate (difference vs control) (Table 3, AChEI/Mem as interaction term, 65 weeks, 125 mg b.i.d. + AChEI/Mem): 0.50 ADAS-cog units
ADAS-cog, Estimate (difference vs control) (Table 3, AChEI/Mem as interaction term, 65 weeks, 125 mg b.i.d. monotherapy): −5.79 ADAS-cog units
ADAS-cog, Estimate (change from baseline) (Table 3, AChEI/Mem as interaction term, 65 weeks, control arm (4 mg b.i.d.)): 5.98 ADAS-cog units
ADAS-cog, Estimate (change from baseline) (Table 4 post-hoc, control-arm subjects, 4 mg b.i.d. + AChEI/Mem): 6.79 ADAS-cog units
ADAS-cog, Estimate (difference) (Table 4 post-hoc, control-arm subjects, 4 mg b.i.d. monotherapy vs 4 mg b.i.d. + AChEI/Mem): −5.90 ADAS-cog units
ADAS-cog, Estimate (change from baseline) (Table 7, mild AD, 4 mg b.i.d. + AChEI/Mem (control-arm subjects)): 3.24 ADAS-cog units
ADAS-cog, Estimate (difference) (Table 7, mild AD, 4 mg b.i.d. alone vs 4 mg b.i.d. + AChEI/Mem): −6.41 ADAS-cog units
ADAS-cog, Estimate (difference) (Table 7, mild AD, 75 mg b.i.d. alone vs control arm as randomised): −8.89 ADAS-cog units
ADAS-cog, Estimate (difference) (Table 7, mild AD, 125 mg b.i.d. alone vs control arm as randomised): −5.03 ADAS-cog units
ADAS-cog, Estimate (change from baseline) (Table 7, mild AD, control arm as randomised (4 mg b.i.d.)): 2.27 ADAS-cog units
ADAS-cog, Estimate (change from baseline) (Table 7, moderate AD, 4 mg b.i.d. + AChEI/Mem (control-arm subjects)): 8.49 ADAS-cog units
ADAS-cog, Estimate (difference) (Table 7, moderate AD, 4 mg b.i.d. alone vs 4 mg b.i.d. + AChEI/Mem): −4.74 ADAS-cog units
ADAS-cog, Estimate (difference) (Table 7, moderate AD, 75 mg b.i.d. alone vs control arm as randomised): −2.01 ADAS-cog units
ADAS-cog, Estimate (difference) (Table 7, moderate AD, 125 mg b.i.d. alone vs control arm as randomised): −5.75 ADAS-cog units
ADAS-cog, Estimate (change from baseline) (Table 7, moderate AD, control arm as randomised (4 mg b.i.d.)): 7.89 ADAS-cog units
ADAS-cog decline at 12 months (mean±se) (control arm (LMTM 4 mg b.i.d.), 12 months): 3.85±0.47
Mean treatment benefit relative to control on ADAS-cog (mild patients, LMTM monotherapy): 240%±41%

Reference: patent US12310973B2, “Administration and dosage of diaminophenothiazines” (WisTa Laboratories Ltd., priority 2016, dated 2025)
